# Measurements taken from PubChem BioAssay AID330 (DTP/NCI, 2004).
# “And” between values parts separate entries of the source, which are not always exact repeats. Identical values can stand only once. Inconclusive results and toxic doses are left out.
# System: P388 leukemia ip, CD2F1 mice, survival T/C
# Assay: NCI In Vivo Anticancer Drug Screen. Data for tumor model P388 Leukemia (intraperitoneal) in CD2F1 (CDF1) mice
# Settings: endpoint: median survival time, higher = longer survival
# Method in brief: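 Mice carrying the transplanted tumor received test compound or vehicle. Survival was recorded in each group, and the value is the treated-group measurement divided by that of the vehicle-treated control group.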
# [1] = dose: 50.0 mg/kg/injection, schedule: Q01DX009 (ip), vehicle: saline
# [2] = dose: 25.0 mg/kg/injection, schedule: Q01DX009 (ip), vehicle: saline with Tween-80
# [3] = dose: 50.0 mg/kg/injection, schedule: Q01DX009 (ip), vehicle: saline with Tween-80
# [4] = dose: 12.5 mg/kg/injection, schedule: Q04DX003 (ip), vehicle: saline
# [5] = dose: 25.0 mg/kg/injection, schedule: Q04DX003 (ip), vehicle: saline
# [6] = dose: 60.0 mg/kg/injection, schedule: Q01DX005 (ip), vehicle: saline with Tween-80
# [7] = dose: 120.0 mg/kg/injection, schedule: Q01DX005 (ip), vehicle: saline with Tween-80
# [8] = dose: 240.0 mg/kg/injection, schedule: Q01DX005 (ip), vehicle: saline with Tween-80
# [9] = dose: 100.0 mg/kg/injection, schedule: Q04DX002 (ip), vehicle: saline with Tween-80
# [10] = dose: 50.0 mg/kg/injection, schedule: Q01DX009 (ip), vehicle: Klucel (hydroxypropylcellulose) (HPC)
# [11] = dose: 100.0 mg/kg/injection, schedule: Q01DX009 (ip), vehicle: saline
# [12] = dose: 200.0 mg/kg/injection, schedule: Q01DX009 (ip), vehicle: saline
# [13] = dose: 50.0 mg/kg/injection, schedule: Q01DX005 (ip), vehicle: saline with Tween-80
# [14] = dose: 100.0 mg/kg/injection, schedule: Q01DX005 (ip), vehicle: saline with Tween-80
# [15] = dose: 200.0 mg/kg/injection, schedule: Q01DX005 (ip), vehicle: saline with Tween-80
compound,measurement,setting,value
O=C(O)Cc1cccc2c(=O)cc(-c3ccccc3)oc12,T/C,"dose: 24.12 mg/kg/injection, schedule: Q01DX005 (ip), vehicle: saline",104 % of control
same,T/C,"dose: 30.0 mg/kg/injection, schedule: Q01DX009 (ip), vehicle: saline",101 % of control and 103 % of control and 106 % of control
same,T/C,"dose: 40.2 mg/kg/injection, schedule: Q01DX005 (ip), vehicle: saline",111 % of control
same,T/C,"dose: 44.0 mg/kg/injection, schedule: Q01DX009 (ip), vehicle: saline",109 % of control and 117 % of control and 122 % of control
same,T/C,"dose: 45.0 mg/kg/injection, schedule: Q01DX009 (ip), vehicle: sodium bicarbonate",116 % of control
same,T/C,[1],106 % of control
same,T/C,"dose: 60.0 mg/kg/injection, schedule: Q04DX002 (ip), vehicle: sodium bicarbonate",103 % of control
same,T/C,"dose: 67.0 mg/kg/injection, schedule: Q01DX001 (ip), vehicle: sodium bicarbonate",112 % of control
same,T/C,"dose: 90.0 mg/kg/injection, schedule: Q04DX002 (ip), vehicle: sodium bicarbonate",118 % of control
same,T/C,"dose: 100.0 mg/kg/injection, schedule: Q01DX001 (ip), vehicle: sodium bicarbonate",107 % of control
same,T/C,"dose: 111.67 mg/kg/injection, schedule: Q01DX005 (ip), vehicle: saline",153 % of control
same,T/C,"dose: 150.0 mg/kg/injection, schedule: Q01DX001 (ip), vehicle: sodium bicarbonate",106 % of control
same,T/C,"dose: 186.12 mg/kg/injection, schedule: Q01DX005 (ip), vehicle: saline",172 % of control
same,T/C,"dose: 200.0 mg/kg/injection, schedule: Q01DX001 (ip), vehicle: sodium bicarbonate",112 % of control
same,T/C,"dose: 223.0 mg/kg/injection, schedule: Q01DX001 (ip), vehicle: sodium bicarbonate",103 % of control
same,T/C,"dose: 300.0 mg/kg/injection, schedule: Q01DX001 (ip), vehicle: sodium bicarbonate",116 % of control
same,T/C,"dose: 333.0 mg/kg/injection, schedule: Q01DX001 (ip), vehicle: sodium bicarbonate",112 % of control
same,T/C,"dose: 400.0 mg/kg/injection, schedule: Q01DX001 (ip), vehicle: sodium bicarbonate",114 % of control
same,T/C,"dose: 500.0 mg/kg/injection, schedule: Q01DX001 (ip), vehicle: sodium bicarbonate",116 % of control
CC1=CC(=O)C=CC1=Nc1ccc(N(C)C)cc1,T/C,[2],108 % of control
same,T/C,[3],109 % of control
CC1=CC2OC3CC4OC(=O)/C=C/C=C/C(C(C)O)OCCC5(C)OC5C(=O)OCC2(CC1)C4(C)C31CO1 (centres undefined),T/C,"dose: 1.25 mg/kg/injection, schedule: Q01DX005 (ip), vehicle: saline + alcohol",101 % of control
same,T/C,"dose: 2.5 mg/kg/injection, schedule: Q01DX005 (ip), vehicle: saline + alcohol",118 % of control
O=C(/C=C/c1ccco1)c1ccc(Cl)cc1,T/C,"dose: 50.0 mg/kg/injection, schedule: Q01DX001 (ip), vehicle: saline sonified",100 % of control
same,T/C,"dose: 100.0 mg/kg/injection, schedule: Q01DX001 (ip), vehicle: saline sonified",95 % of control
same,T/C,"dose: 200.0 mg/kg/injection, schedule: Q01DX001 (ip), vehicle: saline sonified",100 % of control
CCCCCCCC[N+](C)(C)Cc1ccc(Oc2ccc(C[N+](C)(C)CCCCCCCC)cc2)cc1,T/C,"dose: 6.25 mg/kg/injection, schedule: Q04DX003 (ip), vehicle: saline",108 % of control
same,T/C,[4],110 % of control
same,T/C,[5],110 % of control
CS/C(=C1/C(=O)N(c2ccccc2)N=C1c1ccc(C)cc1)N1CC1,T/C,"dose: 100.0 mg/kg/injection, schedule: Q04DX003 (ip), vehicle: Klucel (hydroxypropylcellulose) (HPC)",91 % of control
same,T/C,"dose: 200.0 mg/kg/injection, schedule: Q04DX003 (ip), vehicle: Klucel (hydroxypropylcellulose) (HPC)",94 % of control
same,T/C,"dose: 400.0 mg/kg/injection, schedule: Q04DX003 (ip), vehicle: Klucel (hydroxypropylcellulose) (HPC)",94 % of control
O=C1OC(c2ccccc2)(c2ccccc2)c2cc3c(cc21)C(=O)OC3(c1ccccc1)c1ccccc1,T/C,"dose: 50.0 mg/kg/injection, schedule: Q04DX002 (ip), vehicle: saline",102 % of control
same,T/C,"dose: 100.0 mg/kg/injection, schedule: Q04DX002 (ip), vehicle: saline",100 % of control
same,T/C,"dose: 200.0 mg/kg/injection, schedule: Q04DX002 (ip), vehicle: saline",98 % of control
O=C1CCC(Cc2ccccc2Br)C(=O)N1 (centres undefined),T/C,[6],99 % of control
same,T/C,[7],107 % of control
same,T/C,[8],102 % of control
CSc1nccc(=O)n1-c1ccc(C)cc1,T/C,[9],102 % of control
same,T/C,"dose: 200.0 mg/kg/injection, schedule: Q04DX002 (ip), vehicle: saline with Tween-80",102 % of control
same,T/C,"dose: 400.0 mg/kg/injection, schedule: Q04DX002 (ip), vehicle: saline with Tween-80",98 % of control
COc1ccc(C2=NNC(=O)CC2)cc1OC,T/C,[4],99 % of control
same,T/C,[5],101 % of control
same,T/C,"dose: 50.0 mg/kg/injection, schedule: Q04DX003 (ip), vehicle: saline",101 % of control
COC(=O)c1ccc(SCC/C(CN2C(=O)c3ccccc3C2=O)=N\O)cc1,T/C,[10],95 % of control
same,T/C,"dose: 100.0 mg/kg/injection, schedule: Q01DX009 (ip), vehicle: Klucel (hydroxypropylcellulose) (HPC)",99 % of control
same,T/C,"dose: 200.0 mg/kg/injection, schedule: Q01DX009 (ip), vehicle: Klucel (hydroxypropylcellulose) (HPC)",88 % of control
O=C(O)c1c[nH]c2cc(OCc3ccccc3)ccc2c1=O,T/C,[1],99 % of control
same,T/C,[11],98 % of control
same,T/C,[12],103 % of control
CC1SC(N)=NN=C1c1c(O)c2ccccc2oc1=O (centres undefined),T/C,"dose: 100.0 mg/kg/injection, schedule: Q04DX002 (ip), vehicle: Klucel (hydroxypropylcellulose) (HPC)",103 % of control
same,T/C,"dose: 200.0 mg/kg/injection, schedule: Q04DX002 (ip), vehicle: Klucel (hydroxypropylcellulose) (HPC)",98 % of control
same,T/C,"dose: 400.0 mg/kg/injection, schedule: Q04DX002 (ip), vehicle: Klucel (hydroxypropylcellulose) (HPC)",97 % of control
O=C1C(Br)=CC2C1C1C=CC2(Br)C1=O (centres undefined),T/C,"dose: 30.0 mg/kg/injection, schedule: Q01DX005 (ip), vehicle: saline with Tween-80",105 % of control and 107 % of control
same,T/C,[6],111 % of control and 112 % of control and 118 % of control
same,T/C,[7],101 % of control and 111 % of control and 113 % of control
same,T/C,[8],120 % of control
COC(=O)c1cc(-c2ccc(Cl)cc2)n2c(N)nnc2n1,T/C,[6],100 % of control
same,T/C,[7],100 % of control
same,T/C,[8],104 % of control
N#Cc1ccccc1NC(=O)Nc1ccc(Cl)cc1Cl,T/C,"dose: 0.46 mg/kg/injection, schedule: Q01DX005 (ip), vehicle: saline with Tween-80",94 % of control
same,T/C,"dose: 0.93 mg/kg/injection, schedule: Q01DX005 (ip), vehicle: saline with Tween-80",97 % of control
same,T/C,"dose: 1.87 mg/kg/injection, schedule: Q01DX005 (ip), vehicle: saline with Tween-80",99 % of control
same,T/C,[6],91 % of control and 92 % of control
same,T/C,[7],88 % of control
same,T/C,[8],98 % of control
CCCCCCCCCCCCCCCCC/C=C1\CC(=O)OC1=O,T/C,[2],103 % of control
same,T/C,[3],97 % of control
same,T/C,"dose: 100.0 mg/kg/injection, schedule: Q01DX009 (ip), vehicle: saline with Tween-80",89 % of control
Nc1nnc2nc(C3(c4nc5nnc(N)n5[nH]c4=O)Cc4ccccc4C3=O)c(=O)[nH]n12,T/C,[13],91 % of control
same,T/C,[14],100 % of control
same,T/C,[15],108 % of control
O=[N+]([O-])c1cc(C(F)(F)F)ccc1F,T/C,"dose: 25.0 mg/kg/injection, schedule: Q01DX009 (ip), vehicle: Klucel (hydroxypropylcellulose) (HPC)",106 % of control
same,T/C,[10],106 % of control
c1ccc2c(c1)nnn1c3cnccc3nc21,T/C,"dose: 12.5 mg/kg/injection, schedule: Q01DX009 (ip), vehicle: saline with Tween-80",111 % of control
O=C1C=CC(=O)c2c(O)c3c(c(O)c21)C[C@H](O)[C@H](O)[C@@H]3O,T/C,"dose: 1.56 mg/kg/injection, schedule: Q04DX003 (ip), vehicle: water",98 % of control
same,T/C,"dose: 3.13 mg/kg/injection, schedule: Q04DX003 (ip), vehicle: water",92 % of control
same,T/C,"dose: 6.25 mg/kg/injection, schedule: Q04DX003 (ip), vehicle: water",102 % of control
O=Cc1ccc2c(c1)C(O)NC(=O)O2 (centres undefined),T/C,[13],100 % of control
same,T/C,[14],101 % of control
BrC(Br)=C(Br)Br,T/C,[1],100 % of control
same,T/C,[11],104 % of control
same,T/C,[12],104 % of control
Cc1cc(=O)c2c(ccc3cc4ccccc4cc32)[nH]1,T/C,[13],98 % of control
same,T/C,[14],98 % of control
same,T/C,[15],97 % of control
CN=C(N)N/N=C/c1c2ccccc2cc2ccccc12,T/C,"dose: 25.0 mg/kg/injection, schedule: Q04DX002 (ip), vehicle: saline with Tween-80",115 % of control
same,T/C,"dose: 50.0 mg/kg/injection, schedule: Q04DX002 (ip), vehicle: saline with Tween-80",111 % of control
same,T/C,[9],114 % of control
